How the values were obtained:
Format in all cases: in vivo
[1] = system: Echinochloa crus-galli (ECHCG); assay: Pre-emergence test, herbicidal damage; conditions: 1000 g/ha, evaluated after 13 days
[2] = system: Setaria faberi (SETFA); assay: Pre-emergence test, herbicidal damage; conditions: 1000 g/ha, evaluated after 13 days
[3] = system: Zea mays (ZEAMX); assay: Pre-emergence test, herbicidal damage; conditions: 1000 g/ha, evaluated after 13 days
[4] = system: Amaranthus palmeri (AMAPA); assay: Pre-emergence test, herbicidal damage; conditions: 1000 g/ha, evaluated after 13 days
[5] = system: Ipomoea hederacea (IPOHE); assay: Pre-emergence test, herbicidal damage; conditions: 1000 g/ha, evaluated after 13 days
[6] = system: Amaranthus retoflexus (AMARE); assay: Pre-emergence test, herbicidal damage; conditions: 1000 g/ha, evaluated after 13 days
[7] = system: Amaranthus palmeri (AMAPA); assay: Post-emergence test, herbicidal damage; conditions: sprayed after 8 days cultivation, 1000 g/ha, evaluated after 13 days
Experimental: (§1) Seeds of a variety of test species are sown in standard soil in pots (Amaranthus retoflexus (AMARE), Echinochloa crus-galli (ECHCG), Amaranthus palmeri (AMAPA), Setaria faberi (SETFA), Zea mays (ZEAMX), Ipomoea hederacea (IPOHE)). After 8 days cultivation under controlled conditions in a glasshouse (at 24° C./16° C., day/night; 14 hours light; 65% humidity), the plants are sprayed with an aqueous spray solution derived from the formulation of the technical active ingredient in acetone/water (50:50) solution containing 0.5% Tween 20 (polyoxyethylene sorbitan monolaurate, CAS RN 9005-64-5). Compounds are applied at 1000 g/ha unless otherwise stated. The test plants are then grown in a glasshouse under controlled conditions in a glasshouse (at 24° C./16° C., day/night; 14 hours light; 65% humidity) and watered twice daily. After 13 days the test is evaluated for the percentage damage caused to the plant. The biological activities are shown in the following table on a five-point scale (5=81-100%; 4=61-80%; 3=41-60%; 2=21-40%; 1=10-20%; 0=0%; -=not tested).

[8] = system: Ipomoea hederacea (IPOHE); assay: Post-emergence test, herbicidal damage; conditions: sprayed after 8 days cultivation, 1000 g/ha, evaluated after 13 days
Experimental: as §1

[9] = system: Echinochloa crus-galli (ECHCG); assay: Post-emergence test, herbicidal damage; conditions: sprayed after 8 days cultivation, 1000 g/ha, evaluated after 13 days
Experimental: as §1

[10] = system: Zea mays (ZEAMX); assay: Post-emergence test, herbicidal damage; conditions: sprayed after 8 days cultivation, 1000 g/ha, evaluated after 13 days
Experimental: as §1

[11] = system: Amaranthus retoflexus (AMARE); assay: Post-emergence test, herbicidal damage; conditions: sprayed after 8 days cultivation, 1000 g/ha, evaluated after 13 days
Experimental: as §1

[12] = system: Setaria faberi (SETFA); assay: Post-emergence test, herbicidal damage; conditions: sprayed after 8 days cultivation, 1000 g/ha, evaluated after 13 days
Experimental: as §1

Compound	percentage damage caused to the plant, ECHCG [1]	percentage damage caused to the plant, SETFA [2]	percentage damage caused to the plant, ZEAMX [3]	percentage damage caused to the plant, AMAPA [4]	percentage damage caused to the plant, IPOHE [5]	percentage damage caused to the plant, AMARE [6]	percentage damage caused to the plant, AMAPA [7]	percentage damage caused to the plant, IPOHE [8]	percentage damage caused to the plant, ECHCG [9]	percentage damage caused to the plant, ZEAMX [10]	percentage damage caused to the plant, AMARE [11]	percentage damage caused to the plant, SETFA [12]
CCOC(=O)c1nn(-c2cc(OC)ncn2)c2cccc(Br)c2c1=O [Compound 32, ethyl 5-bromo-1-(6-methoxypyrimidin-4-yl)-4-oxo-cinnoline-3-carboxylate]	1 (1=10-20%)	1 (1=10-20%)	0 (0=0%)	0 (0=0%)	0 (0=0%)	0 (0=0%)	1 (1=10-20%)	1 (1=10-20%)	0 (0=0%)	0 (0=0%)	1 (1=10-20%)	0 (0=0%)
CCOC(=O)c1nn(-c2ccnc(OC(F)F)c2)c2cccc(/C(C)=N\OC)c2c1=O [Compound 41, ethyl 1-[2-(difluoromethoxy)-4-pyridyl]-5-[(Z)—N-methoxy-C-methyl-carbonimidoyl]-4-oxo-cinnoline-3-carboxylate]	4 (4=61-80%)		1 (1=10-20%)	0 (0=0%)	0 (0=0%)	0 (0=0%)	1 (1=10-20%)	1 (1=10-20%)	2 (2=21-40%)		1 (1=10-20%)	1 (1=10-20%)
N#Cc1cccc2c1c(=O)c(C(=O)O)nn2-c1cncnc1 [Compound 1, 5-cyano-4-oxo-1-pyrimidin-5-yl-cinnoline-3-carboxylic acid]	2 (2=21-40%)	0 (0=0%)	0 (0=0%)	0 (0=0%)	0 (0=0%)	0 (0=0%)	1 (1=10-20%)	1 (1=10-20%)	2 (2=21-40%)	1 (1=10-20%)	2 (2=21-40%)	1 (1=10-20%)
CCOC(=O)c1nn(-c2ccnc(OC(F)F)c2)c2cccc(C(C)=O)c2c1=O [Compound 40, ethyl 5-acetyl-1-[2-(difluoromethoxy)-4-pyridyl]-4-oxo-cinnoline-3-carboxylate]	3 (3=41-60%)		0 (0=0%)	0 (0=0%)	0 (0=0%)	0 (0=0%)	0 (0=0%)	1 (1=10-20%)	4 (4=61-80%)		1 (1=10-20%)	1 (1=10-20%)
CCOC(=O)c1nn(-c2ccc(OC(F)F)nc2)c2cccc(C(C)=O)c2c1=O [Compound 37, ethyl 5-acetyl-1-[6-(difluoromethoxy)-3-pyridyl]-4-oxo-cinnoline-3-carboxylate]	4 (4=61-80%)		4 (4=61-80%)	0 (0=0%)	0 (0=0%)	0 (0=0%)	0 (0=0%)	2 (2=21-40%)	4 (4=61-80%)		1 (1=10-20%)	1 (1=10-20%)
CCOC(=O)c1nn(-c2ccc(OC(F)F)nc2)c2cccc(Br)c2c1=O [Compound 36, ethyl 5-bromo-1-[6-(difluoromethoxy)-3-pyridyl]-4-oxo-cinnoline-3-carboxylate]	0 (0=0%)	1 (1=10-20%)	1 (1=10-20%)	1 (1=10-20%)	0 (0=0%)	0 (0=0%)	0 (0=0%)	1 (1=10-20%)	0 (0=0%)	0 (0=0%)	2 (2=21-40%)	1 (1=10-20%)
CCOC(=O)c1nn(-c2ncc(Cl)cn2)c2cccc(Br)c2c1=O [Compound 34, ethyl 5-bromo-1-(5-chloropyrimidin-2-yl)-4-oxo-cinnoline-3-carboxylate]	0 (0=0%)	1 (1=10-20%)	0 (0=0%)	1 (1=10-20%)	0 (0=0%)	0 (0=0%)	1 (1=10-20%)	3 (3=41-60%)	0 (0=0%)	1 (1=10-20%)	3 (3=41-60%)	2 (2=21-40%)
CCOC(=O)c1nn(-c2ccnc(Br)c2)c2cccc(Br)c2c1=O [Compound 10, ethyl 5-bromo-1-(2-bromo-4-pyridyl)-4-oxo-cinnoline-3-carboxylate]		0 (0=0%)	0 (0=0%)	0 (0=0%)	0 (0=0%)	1 (1=10-20%)	3 (3=41-60%)	0 (0=0%)	1 (1=10-20%)	0 (0=0%)	3 (3=41-60%)	0 (0=0%)
CCOC(=O)c1nn(-c2ccc(F)nc2)c2cccc(Br)c2c1=O [Compound 23, ethyl 5-bromo-1-(6-fluoro-3-pyridyl)-4-oxo-cinnoline-3-carboxylate]	5 (5=81-100%)	4 (4=61-80%)	0 (0=0%)	0 (0=0%)	1 (1=10-20%)	0 (0=0%)	0 (0=0%)	0 (0=0%)	4 (4=61-80%)	1 (1=10-20%)	0 (0=0%)	4 (4=61-80%)

— US20250313549A1, “HERBICIDAL DERIVATIVES” (SYNGENTA CROP PROTECTION AG, priority 2021, published 2025)
